Data taken from publication PMC7261837, “Circumdatin D Exerts Neuroprotective Effects by Attenuating LPS-Induced Pro-Inflammatory Responses and Downregulating Acetylcholinesterase Activity In Vitro and In Vivo” (Frontiers in Pharmacology, 2020).

Key:
BV-2 cells [1] = test: LPS-induced NO production in BV-2 cells (Griess method); format: cell-based, murine; details: 1 μg/ml LPS, 24 h
Protocol: BV-2 cells (murine microglia cell line) was obtained from Peking Union Medical College, Cell Bank (Beijing, China) and maintained in DMEM containing 10% FBS. Cells were grown in a humidified atmosphere of 5% CO2 incubator at 37°C.
BV2 cells were seeded and incubated overnight, and followed by treatment with different doses of circumdatins for indicated period with or without LPS (1 μg/ml) stimulation. The cells without circumdatins and LPS treatment were used as the control group.
The NO levels in culture media was determined using a Griess method. Cells were treated with different concentrations of circumdatins in the presence or absence of LPS for 24 h. After that, the supernatant fraction of the culture media was collected and mixed with the same volume of Griess reagent (1% sulfanilamide/0.1% naphthyl ethylene diamine dihydrochloride/2% H3PO4). Then, the absorbance was measured at 540 nm using a microplate spectrophotometer (Thermo Scientifics, USA). The concentration of nitrite was calculated from a calibration curve obtained from standards sodium nitrite solutions.

BV-2 cells [2] = test: ELISA for TNF-α and IL-1β in LPS-induced BV-2 cells; format: cell-based, murine; details: 1 μg/ml LPS, 10, 20, 50 μM, 6 h TNF-α, 8 h IL-1β
Protocol: Cells were treated with different concentrations of circumdatin D in the presence or absence of LPS for indicated time. Then, the culture media were collected and centrifuged at 12,000g, 4°C for 20 min. The levels of TNF-α and IL-β in the supernatants were determined by ELISA kits according to the manufacturer's instructions.

primary microglia cells = test: MTT assay in primary microglia; format: cell-based, Sprague Dawley rats; details: untreated and LPS-stimulated cells, 1–100 μM, 48 h
Protocol: Primary microglia were prepared from the cortical tissue of neonatal (1–3 d) Sprague Dawley rats as [Ni and Aschner (2010)] described and primary cortical neurons were isolated from embryos of pregnant Sprague Dawley rats of E-18 ([Zeng et al., 2012]). All experimental manipulations with the animals was reviewed and approved by the animal experimental ethics committee of Peking University. The animals used in the work were performed in accordance with the Animal Care and Use Guidelines of Peking University.
In vitro cytotoxicity was detected using the MTT assay. Cells were treated with different concentrations of circumdatins in the presence or absence of LPS for 48 h. Then, MTT reagent was added to each well and the plates were further incubated at 37°C for 4 h. The absorbance was read at 570 nm using a microplate spectrophotometer (Thermo Scientifics, USA).
Cell surviability was detected using the MTT assay. Cells were seeded in 96-well plates and incubated overnight, following which the cells were treated with different concentrations of circumdatins with or without 1µg/mL of LPS for indicated time. Then, the cells were subsequently cultured with MTT and incubated for 4 hours at 37°C. Thereafter, the purple formazan dye was dissolved in DMSO and the absorbance was measured at 570 nm.

[3] = tested on: primary cortical neurons co-cultured with LPS-activated primary microglia; test: Microglia-neuron co-culture neuroprotection (MTT, TUNEL, crystal violet); format: cell-based, Sprague Dawley rats
Protocol: For co-culture experiments, primary microglia cells were seeded on the upper insert of Transwell chambers (pore size 3 μm; Corning Costar, USA) in 24-well plates, and neurons were grown in the lower plate wells. Circumdatin D was added to primary microglia cells 1 h before LPS stimulation. After 48 h of coculture, the neurons in the bottom of 24-well plate were collected for the following experiments.
[…] Then, the cells were stained with 1% crystal violet solution for 15 min. Images were captured with an optical microscope. Five different fields were selected for each group for observing cellular morphology.
[…] TUNEL staining was performed to detect apoptosis using in situ cell death detection Kit (Roche Diagnostics, Mannheim, Germany). Hochest 33342 staining was used to detect total cell nuclei. Images were taken and analyzed on a confocal microscopy (Leica, Germany). Six fields from each sample were randomly selected and analyzed.

[4] = biological target: T1, AChE in primary cortical neurons (Rattus norvegicus, UniProt P37136); test: AChE activity in LPS-treated primary neurons (modified Ellman); format: cell-based; details: 1 μg/ml LPS, 1–100 μM, 48 h
T1 construct: primary cortical neurons were isolated from embryos of pregnant Sprague Dawley rats of E-18; endogenous in cells; host or cells: primary cortical neurons from E-18 Sprague Dawley rat embryos
T1 sequence (P37136 32-614): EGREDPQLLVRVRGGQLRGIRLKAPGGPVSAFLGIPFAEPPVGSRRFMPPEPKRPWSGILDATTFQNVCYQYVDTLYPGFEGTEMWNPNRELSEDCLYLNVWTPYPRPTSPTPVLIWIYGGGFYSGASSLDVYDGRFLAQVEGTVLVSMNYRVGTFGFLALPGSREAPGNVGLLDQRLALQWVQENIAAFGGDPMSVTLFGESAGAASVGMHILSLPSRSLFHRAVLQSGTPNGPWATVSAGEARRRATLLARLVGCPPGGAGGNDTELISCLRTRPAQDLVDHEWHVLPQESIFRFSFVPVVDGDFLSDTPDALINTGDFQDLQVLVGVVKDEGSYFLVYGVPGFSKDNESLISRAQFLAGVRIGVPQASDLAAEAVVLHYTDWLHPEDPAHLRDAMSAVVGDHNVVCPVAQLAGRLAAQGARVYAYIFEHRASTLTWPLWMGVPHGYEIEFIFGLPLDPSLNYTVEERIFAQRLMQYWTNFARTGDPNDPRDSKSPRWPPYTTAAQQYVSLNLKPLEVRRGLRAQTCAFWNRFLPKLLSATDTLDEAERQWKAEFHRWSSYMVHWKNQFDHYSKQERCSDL
Protocol: AChE activities in vitro and in vivo were assessed by a modified Ellman's spectrophotometric method ([Szwajgier, 2015]). Briefly, AChE (80 μl) in phosphate buffer (Na2HPO4/NaH2PO4, pH 8.0) and compound (20 μl) diluted in same phosphate buffer were added to 96 microplates as the reaction mixture. The mixture was incubated at 37°C for 30 min before addition of 10 μl 5,5′-dithiobis (2-nitrobenzoic acid) (DTNB) (3 mM) and 10 μl acetylthiocholine iodide (ATCI) (15 mM). After incubation for 20 min, the absorbance was detected at 412 nm using a microplate spectrophotometer (Thermo Scientifics, USA). […] The inhibitory rate of AChE was calculated, and the IC50 values were calculated by GraphPad Prism® 5.0 software (GraphPad Inc., San Diego, USA).

[5] = tested on: AChE in C. elegans CL4176; test: AChE activity of C. elegans CL4176; format: in vivo, Caenorhabditis elegans; details: CL4176 nematodes
Protocol: AChE activity of C. elegans was determined by the method as described ([Xin et al., 2013]). Briefly, approximately 1,000 nematodes with or without circumdatin D treatment were collected and then triturated mechanically in PBS (50 mM, pH 7.4) on ice. The lysate supernatant was collected by centrifugation and AChE activity in the supernatant was determined using modified Ellman method. The protein concentration was determined by BCA protein assay. AChE activity was expressed as U/mg proteins.

NF-κB signaling pathway = test: NF-κB p65 translocation and IKK/IκB phosphorylation in LPS-induced BV-2 cells; format: cell-based, murine; details: 1 μg/ml LPS, 10, 20, 50 μM, 3 h
Protocol: BV2 cells were seeded on glass coverslips and treated with circumdatin D in the presence or absence of LPS for indicated time. After that, the cells were washed twice with PBS and fixed with cold 4% paraformaldehyde for 30 min. Then, the cells were permeabilized with 0.1% Triton X-100 for 10 min and blocked with 5% bovine serum albumin for 1 h. After incubation with primary antibodies overnight at 4°C, the cells were incubated with Alexa Fluor 488-conjugated secondary antibodies (Proteintech, USA) for 1 h at room temperature. Furthermore, Hochest 33342 was added to stain cell nuclei. Images were acquired and analyzed using a confocal microscope (Leica, Germany).
Total cell proteins were lysed using cell extraction buffer containing phenylmethylsulfonyl ﬂuoride and protease inhibitor cocktail. The cytosolic and nuclear extracts were collected using the Nuclear and Cytosolic extraction kit. The protein extracts were separated on SDS-PAGE and transferred to PVDF membranes (Millipore). The membrane was blocked with 5% nonfat milk for 1 h at room temperature, and incubated with indicated primary antibodies overnight at 4°C. After washing, the membrane was incubated with secondary antibodies conjugated to horseradish peroxidase (Proteintech, USA) at room temperature for 1 h. Then, the proteins of interest were visualized utilizing a chemiluminescence (ECL) detection system. The relative optical densities were analyzed using the Image Master™ 2D Elite software.

COc1ccc2c(c1)C(=O)N1CCC[C@H]1c1nc3ccc(OC)cc3c(=O)n1-2 [circumdatin D]
LPS-induced NO production (BV-2 cells [1]): significant reduction of NO levels
LPS-induced TNF-α and IL-1β production (ELISA) (BV-2 cells [2]): suppressed LPS-induced TNF-α and IL-1β production
toxicity in primary microglial cultures (MTT) (primary microglia cells): low toxicity
neuron death in co-cultures (MTT) ([3]; microglia treated prior to LPS stimulation (1 μg/ml), 48 h): reduced neuron death
neuron apoptosis, TUNEL-positive cells ([3]; microglial-neuronal co-culture, 1 μg/ml LPS): significantly reduced the numbers of TUNEL-positive cells
neuronal morphology (crystal violet staining) ([3]; microglial-neuronal co-culture, 1 μg/ml LPS, 48 h): markedly reversed the neuronal injury
LPS-induced AChE activity in primary neuronal cells [4]: markedly reduced the LPS-induced AChE activities
AChE activity elevated upon temperature upshift [5]: significantly attenuated these changes in a dose-dependent manner
NF-κB nuclear translocation (immunofluorescence) (NF-κB signaling pathway): inhibited LPS-induced NF-κB nuclear translocation
nuclear NF-κB p65 levels (Western blot) (NF-κB signaling pathway): reduced nuclear NF-κB p65 levels significantly
phosphorylation levels of IKK and IκB (NF-κB signaling pathway): down-regulated the phosphorylation levels of IKK and IκB
